Measured values published in patent US8440637B2, “Combination treatment for the treatment of hepatitis C virus infection” (priority 2007, dated 2013).
Strand notation (5' to 3'): a small letter for the sugar, then the base; units joined by * are phosphorothioate-linked, units joined directly phosphodiester-linked; [ ] holds rarer units or linkages, { } end groups; capitals alone tell only the bases. l = locked nucleic acid (LNA); [5mC] = 5-methylcytosine; d = 2'-deoxy (DNA)

Assays:
HCV replicon (NNeo/C-5B) = test: HCV replication in Huh-7 cells transfected with HCV replicon, Northern blot; assay type: cell-based, Hepatitis C virus; settings: Huh-7 with HCV replicon; 48 hours; compared to mock and mismatch control
Method: We assess the efficacy of SEQ ID NO: 63 reducing HCV replication in the Huh-7 based cell model. Preliminary data on SEQ ID NO: 63 along with its truncated version SEQ ID NO: 66 (13-mer LNA-antimiR) and 4 nt mismatch control from inhibiting HCV replication in the Huh-7 cell line transfected with a HCV replicon (NNeo/C-5B). The different LNA-antimiR molecules along with a 2′ OMe antisense and scramble oligonucleotide were transfected into Huh-7 cells, HCV was allowed to replicate for 48 hours. Total RNA samples extracted from the Huh-7 cells were subjected to Northern blot analysis.

miR-122 [1] = test: microRNA specific northern blot of mouse liver RNA; assay type: in vivo
Method: We decided to assess the effect of SEQ ID NO:63 on miR-122 miRNA levels in the livers of SEQ ID NO: 63-treated mice. The LNA-antimiRs SEQ ID NO:63 and SEQ ID NO: 61 were administered into mice by three i.p. injections on every second day over a six-day-period at indicated doses followed by sacrificing the animals 48 hours after the last dose. Total RNA was extracted from the livers. miR-122 levels were assessed by microRNA specific northern blot (FIG. 6)
The liver RNA was also subjected to microRNA Northern blot. Shown in FIG. 13 is a membrane probed with a miR-122a specific probe (upper panel) and re-probed with a Let-7 specific probe (lower panel). With the miR-122 probe, two bands could be detected, one corresponding to mature miR-122 and one corresponding to a duplex between SEQ ID NO: 61 and miR-122.
Preparation of northern membranes was done as described in Sempere et al. 2002, except for the following changes: Total RNA, 10 μg per lane, in formamide loading buffer (47.5% formamide, 9 mM EDTA, 0.0125% Bromophenol Blue, 0.0125% Xylene Cyanol, 0.0125% SDS) was loaded onto a 15% denaturing Novex TBE-Urea polyacrylamide gel (Invitrogen) without preheating the RNA. The RNA was electrophoretically transferred to a GeneScreen plus Hybridization Transfer Membrane (PerkinElmer) at 200 mA for 35 min. Membranes were probed with 32P-labelled LNA-modified oligonucleotides complimentary to the mature microRNAs*. The LNA oligonucleotides were labelled and hybridized to the membrane as described in (Válóczi et al. 2004) except for the following changes: The prehybridization and hybridization solutions contained 50% formamide, 0.5% SDS, 5×SSC, 5×Denhardt's solution and 20 μg/ml sheared denatured herring sperm DNA. Hybridizations were performed at 45° C. The blots were visualized by scanning in a Storm 860 scanner. The signal of the background membrane was subtracted from the radioactive signals originating from the miRNA bands. The values of the miR-122 signals were corrected for loading differences based on the let-7a signal. […]

miR-122 [2] = test: Genome-wide liver expression profiling, Affymetrix Mouse Genome 430 2.0 arrays; assay type: in vivo
Method: We carried out genome-wide expression profiling of total RNA samples from saline LNA-antimiR-122 treated and LNA mismatch control treated mice livers 24 hours after the last dose using Affymetrix Mouse Genome 430 2.0 arrays. […] We subsequently examined the 3′ untranslated regions (UTRs) of the differentially expressed mRNAs for the presence of the 6 nt sequence CACTCC, corresponding to the reverse complement of the nucleotide 2-7 seed region in mature miR-122.
Expression profiles of livers of saline and LNA-antimiR treated mice were compared. NMRI female mice were treated with 25 mg/kg/day of LNA-antimiR along with saline control for three consecutive days and sacrificed 24 h, 1, 2 or 3 weeks after last dose. Additionally, expression profiles of livers of mice treated with the mismatch LNA control oligonucleotide 24 h after last dose were obtained. Three mice from each group were analyzed, yielding a total of […] expression profiles. RNA quality and concentration was measured using an Agilent 2100 Bioanalyzer and Nanodrop ND-1000, respectively. Total RNA was processed following the GeneChip Expression 3′-Amplification Reagents One-cycle cDNA synthesis kit instructions (Affymetrix Inc, Santa Clara, Calif., USA) to produce double-stranded cDNA. This was used as a template to generate biotin-labeled cRNA following manufacturer's specifications. Fifteen micrograms of biotin-labeled cRNA was fragmented to strands between 35 and 200 bases in length, of which 10 micrograms were hybridised onto Affymetrix Mouse Genome 430 2.0 arrays overnight in the GeneChip Hybridisation oven 6400 using standard procedures. The arrays were washed and stained in a GeneChip Fluidics Station 450. Scanning was carried out using the GeneChip Scanner 3000 and image analysis was performed using GeneChip Operating Software. Normalization and statistical analysis were done using the LIMMA software package for the R programming environment27. Probes reported as absent by GCOS software in all hybridizations were removed from the dataset. Additionally, an intensity filter was applied to the dataset to remove probes displaying background-corrected intensities below 16. Data were normalized using quantile normalization28. Differential expression was assessed using a linear model method. P values were adjusted for multiple testing using the Benjamini and Hochberg. Tests were considered to be significant if the adjusted p values were p<0.05. Clustering and visualization of Affymetrix array data were done using the MultiExperiment Viewer software29.

miR-122 [3] = assay type: in vivo, mouse
Description: Liver cryo-sections from treated animals were subjected to in situ hybridizations for detection and localization of miR-122 and SEQ ID NO: 61 (FIG. 14). A probe complementary to miR-122 could detect miR-122a. A second probe was complementary to SEQ ID NO: 61. Shown in FIG. 14 is an overlay, in green is distribution and apparent amounts of miR-122a and SEQ ID NO: 61 and blue is DAPI nuclear stain, at 10× magnification. 100× magnifications reveal the intracellular distribution of miR-122a and SEQ ID NO: 61 inside the mouse liver cells.

[4] = liver, 24 hours after the last dose

Question: With “5′-AttGTcaCaCtCC-3′ (antisense lA*dT*dT*lG*lT*dC*dA*l[5mC]*dA*l[5mC]*dT*l[5mC]*l[5mC]) [SEQ ID NO: 66]” as the substance, how does the “HCV RNA / inhibition of HCV replication (in words)” value (HCV replicon (NNeo/C-5B)) read?
Answer: comparable efficacy with SEQ ID NO: 63

Question: For “5′-CcAttGTcaCaCtCC-3′ (antisense CCATTGTCACACTCC; sugars from the 5' end ldlddllddldldll, backbone and methylation of C not given here) [SEQ ID NO: 63]”, which “HCV RNA / inhibition of HCV replication (in words)” value (HCV replicon (NNeo/C-5B)) is on record?
Answer: significant reduction of HCV RNA

Question: What about the “blocking of miR-122, northern blot (in words)” value (miR-122 [1]; three i.p. injections every second day, 5 and 25 mg/kg, 48 hours after last dose) of the same substance?
Answer: completely blocked miR-122

Question: And the “duplex versus mature band on northern blot, comparison (in words)” value (miR-122 [1]; three i.p. injections every second day, 48 hours after last dose)?
Answer: equally efficient at 1 mg/kg as SEQ ID NO: 61SEQ ID NO: 61 at 25 mg/kg

Question: Which “differentially expressed mRNAs” value (miR-122 [2]; 24 hours after the last LNA dose) does the source give for “5′-ccAttGtcAcaCtcCa-3′ (antisense CCATTGTCACACTCCA; sugars from the 5' end ddlddlddlddlddld, backbone and methylation of C not given here) [SEQ ID NO: 61]” here?
Answer: 509

Question: And the differentially expressed genes (miR-122 [2]; after one week)?
Answer: 251

Question: What about the transcripts downregulated (miR-122 [2]; [4]) of the same substance?
Answer: 54

Question: What about the “transcripts upregulated compared to saline and LNA mismatch controls” value (miR-122 [2]; [4]) of the same substance?
Answer: 455

Question: What about the differentially expressed genes (miR-122 [2]; three weeks post treatment) of the same substance?
Answer: 18

Question: What about the “mature miR-122, small RNA northern blot (in words)” value (miR-122 [1]; liver RNA, let-7a control not altered) of the same substance?
Answer: significantly reduced levels of detectable mature miR-122

Question: And the “miR-122 staining pattern in liver sections (in words)” value (miR-122 [3]; liver cryo-sections from treated mice versus saline)?
Answer: significantly reduced patchy staining pattern

Question: And the “intracellular distribution of the oligonucleotide in hepatocytes (in words)” value (miR-122 [3]; mouse, in vivo)?
Answer: evenly distributed in the entire cytoplasm
